# Reference: patent US10646521B2, “Microbiota composition, as a marker of responsiveness to chemotherapy, and use of microbial modulators (pre-, pro- or synbiotics) for improving the efficacy of a cancer treatment” (INSTITUT GUSTAVE ROUSSY, priority 2013, dated 2020)
# Values joined by “and” are separate entries in the source; they are usually repeats but may differ in a detail not shown here. Equal entries are not always repeated.
# Tests used:
# [1] = tested on: bacterial groups associated with small intestine mucosa
# [2] = tested on: lamina propria cells of the small intestine; conditions: 7 days post-CTX
# splenocytes = test: TCR cross-linking of splenocytes, IL-17 and IFNγ ELISA; type: in vivo, mice
# gut microbiota [3] = conditions: NOD1-/-xNOD2-/- naive mice, CTX compared with PBS, seven days
# MCA205 sarcomas = type: in vivo, C57BL/6 mice; conditions: mouse, in vivo
# splenic CD4+ T cells = conditions: mouse, in vivo
# [4] = tested on: CBir1 TCR Tg CD4+ T cells; conditions: mouse, in vivo
# Experimental: CD4^+ T cells were isolated from B6.CBir1 TCR Tg mice using anti-mouse CD4 magnetic beads. Briefly, splenic cells were washed twice and incubated with anti-CD4 magnetic beads at 4° C. for 30 min and then separated by magnetic field. When checked by flow cytometry, over 95% of the cells were CD4^+ T cells. One million CBir1 Tg T cells (CD45.1^+) were adoptively transferred i.v. into CTX or NaCl treated-naïve congenic (CD45.2^+) mice two days after chemotherapy and spleens were harvested at day 5-7 post-transfer for flow cytometry analyses and ex vivo splenocyte restimulations. Flow cytometry analyses gated on CD45.1^+ cells to appreciate percentages of intracellular IL-17^+ or IFNg^+ cells after PMA/ionomycin 5 h restimulation in the presence of monensin.
# [5] = tested on: small intestine epithelium; conditions: mouse, in vivo
# Experimental: The whole small intestine (duodenum, jejunum and ileum) was removed, cleaned from fecal content and fixed in 4% of PFA for 1 h. Re-hydration of the tissue was performed in 15% sucrose for 1 h and in 30% sucrose overnight. Depending on the experiment, the small intestine was entirely rolled, or cut into small pieces, then embedded in optimum cutting temperature (OCT) compound (Sakura), snap frozen and longitudinal or transversal […] were prepared.
# For histological analyses, the longitudinal sections were counterstained with hematoxilin and eosin. For the histological quantitative analyses, inflammatory foci, altered villi and the thickness of lamina propria were scored for each section, while the number of goblet cells was counted for each villus. […] Then, a rabbit polyclonal antibody against the lysozyme protein (1:500 for 1 h, Thermo Scientific) and ALEXA FLUOR 488 Fragment of goat anti-rabbit IgG (1:300 for 1 h, Molecular Probes) were used. All steps were performed at room temperature. Lysozyme-positive areas were quantified on mosaic images using the Histolab software (Microvision Instruments). The quantification of Paneth cells was performed measuring the average area of the Lysozyme-positive clusters (group of Paneth cells) as well as the emission/μm^2 of those clusters (not shown).
# [6] = 18 h post CTX
# Experimental: Gut barrier integrity was assessed by permeability to FITC-dextran (4 kDa, Sigma Aldrich). Fourteen hours after i.p. injection with NaCl or CTX at 100 or 200 mg/kg, mice were fasted for 4 hours and then orally fed with FITC-dextran at 0.6 mg/g body weight (80 mg/ml in NaCl, 18 h after NaCl/CTX treatment). After 3 to 4 h, the mice were euthanized and exsanguinated by cardiac puncture. Plasma FITC levels were subsequently determined using a fluorescence spectrophotometer (λex/λem=485/535 nm).
# [7] = tested on: Lysozyme M and RegIIIγ transcription; conditions: duodenum, 18 hours post-CTX
# Experimental: Lamina propria cells were isolated from duodenum, ileum and colon 18 h post CTX, and total RNA extraction and genomic DNA removal were performed with the RNeasy Mini Kit (Qiagen, Hilden, Germany), following the manufacturer's instructions. Total RNA extraction and genomic DNA removal of ilea or duodena were performed with the RNeasy Mini Kit (Qiagen, Hilden, Germany), following the manufacturer's instructions. Total RNA was then reverse transcribed into cDNA with the SuperScript III Reverse Transcriptase and the RNaseOUT™ Recombinant Ribonuclease Inhibitor (Life Technologies, Saint Aubin, France), in the presence of random primers (Promega, Charbonnieres, France) and the Deoxynucleoside Triphosphate Set, PCR grade (Roche Diagnostics, Meylan, France). Expression of RegIIIγ (Mm00441127_m1) and LysM (Mm01612741_m1)-related genes was analyzed with TaqMan® Gene Expression Assays using the Universal Master Mix II on a StepOnePlus™ Real-Time PCR System (Life Technologies, France). Quantitative RT-PCR data were invariably normalized to the expression levels of the housekeeping gene peptidylprolyl isomerase A (Ppia) by means of the 2^−ΔCt method.
# [8] = tested on: small intestine mucosal microbiota; conditions: mouse, in vivo
# memory CD4+ T cells = conditions: 11 patients, after metronomic CTX
# Experimental: Ex vivo restimulation assays using patients' autologous monocytes loaded with defined bacteria for 3 hours, neutralized with antibiotics, then cultured in GM-CSF+IL-4 (to differentiate into DC) and incubated for 3 days with CD4^+CD45RO^+ T cells (at a 1:2 ratio) purified from autologous blood at various time points (Day 0: before CTX, Day 12-46: after CTX, NSCLC: non small cell lung cancer). A. Cytokine release (IFNγ, TNF, IL-10) was monitored using ELISA. […] C. […] B-D show the cytokine levels in the 40 h supernatants of 250.000 memory CD4^+ T cells for each individual patient pre- and post-CTX administration.
# The responses that were monitored included those against enterococci (E. hirae and E. faecalis, both immunogenic in mice receiving CTX), lactobacilli (L. johnsonii and the less relevant L. plantarum), as well as against E. coli.
# commensal bacteria = type: in vivo, mice
# Experimental: Mesenteric lymph nodes and spleens were aseptically removed, smashed in PBS and plated onto COS agar plates (BioMérieux), for aerobic and anaerobic growth. After 48 h of culture, single colonies were isolated and stocked in glycerol at −80° C.
# Serial dilutions of feces from naïve mice or tumor bearers treated with NaCl or CTX, vancomycin or broad spectrum antibiotics (ATB) (ampicillin+streptomycin+colistin), were plated onto COS agar plates and after 48 h, single colonies were isolated and Gram staining was performed. The identification of specific bacteria was accomplished through the combination of morphological tests and the analysis through VITEK® automated system (BioMérieux, France) and verified in mass spectrometry (MALDI-TOF, see below) performed at Pasteur Institute, Paris, France.
# splenic pTh17 cells = test: Flow cytometry of splenic pTh17 / TH1 / Tc1 cells
# Experimental: For cross-linking experiment, 2×10^5 total splenocytes per well (after red cell lysis) were incubated in MaxiSorp plates (Nunc) precoated with anti-CD3ε mAb (145-2C11) (0.5 μg per well; eBioscience) and/or anti-CD28 mAb (37.51) (2 μg/ml; BD). The supernatants were assayed at 48 h by ELISA for mouse IL-17A (eBioscience) and IFNγ (BD). […] For intracellular, cells were incubated for 4 h at 37° C. with 50 ng/ml of PMA, 1 μg/ml of ionomycin and BD Golgi STOP™. After membrane staining, cells were stained with anti-IL-17A, IFNγ, T-bet and RORγt using eBioscience FoxP3/Transcription factor staining buffer set.
# tumor = test: Effects of ATB regimen on the efficacy of CTX (tumor outgrowth); type: in vivo, mice; conditions: ATB regimen 15 days prior to tumor inoculation
# Experimental: Distinct ATB regimen (Zhang Y et al. Toxicology and Applied Pharmacology 277 (2014) 138-145) were administered for 15 days prior to tumor inoculation and CTX therapy every other 13 days. Tumor outgrowth was monitored with a caliper twice a week. […] Each experiment contains several groups of 5 mice. *Anova test: p<0.05.
# gut microbiota [9] = conditions: Zhang Y et al., 2014; cited from earlier work
structure (smiles),measurement,setting,value
"O=P1(N(CCCl)CCCl)NCCCO1 (centres unmarked) [CTX, cyclophosphamide]",relative amounts of SFB and TM7 or Clostridium group XIV,[1]; day 7 post-CTX (not shown),No CTX-specific modulations
same,abundance of lactobacilli and enterococci,"[1]; small intestine mucosa, 7 days post-CTX",reduction
same,bacterial counts of the Clostridium leptum,"[1]; tumor bearers, 7 days post-CTX",not affected
same,total bacterial load of the small intestine,"[1]; tumor bearers, 7 days post-CTX",not affected
same,frequencies of CD103+CD11b+ dendritic cells in lamina propria of the small intestine,[2],significantly decreased
same,frequencies of TCRαβ+CD3+ T cells expressing RORγt in lamina propria of the small intestine,[2],significantly decreased
same,polarization of splenic CD4+ T cells towards Th1 and Th17 pattern,splenocytes; day 7 after treatment,induced the polarization
same,increase of ex vivo IL-17 release by TCR-stimulated splenocytes,splenocytes; germ-free (GF) mice,failed to do so
same,ex vivo IL-17 release by TCR-stimulated splenocytes,splenocytes; specific pathogen-free (SPF) mice,increased
same,Clostridiaceae in the small intestines,gut microbiota [3],overrepresentation
same,Erysipelotrichaceae in SI,gut microbiota [3],relative loss
same,Lachnospiraceae in feces,gut microbiota [3],relative loss
same,Porphyromonadaceae (mainly Barnesiella) in the stool,gut microbiota [3],overrepresentation
same,"antitumor effects against MCA205 sarcomas, GF versus SPF mice",MCA205 sarcomas,reduced in GF compared with SPF mice
same,immune-dependent anti-sarcoma effects in NOD1-/-xNOD2-/- mice,MCA205 sarcomas,significantly enhanced
same,immune-dependent anti-sarcoma effects in single knock out mice (NOD1 or NOD2 or RIP2 or CARD15) compared with WT,MCA205 sarcomas,not ameliorated
same,mice with Th1 memory responses against L. johnsonii,splenic CD4+ T cells,50 % of mice
same,immune responses against commensal bacteria (CBir1 Tg T cells),[4],"induced TCR-restricted, antigen specific immune responses against commensal bacteria"
same,inflammatory status of the gut epithelial barrier (histology),[5],"shortening of small intestinal villi, discontinuities of the epithelial barrier, interstitial edema and focal accumulation of mononuclear cells in the lamina propria"
same,intestinal permeability (orally administered FITC-dextran detectable in blood),[6],increase
same,expression of the antibacterial enzyme lysozyme,[7],upregulated
same,bacterial species/groups from the Firmicutes phylum in mucosa,[8],reduction
same,dysbiosis at early time points,[8],failed to cause a major dysbiosis
same,microbial composition of small intestine and caecum,[8],significantly altered the microbial composition of the small intestine (but not of the caecum)
same,proportion of Spirochaetes phylum,[8],reduction
same,relative abundance of the Treponema genus,[8],0%
same,relative abundance: Butyrate-producing bacterium M62/1 (AY305309),[8],0.07% and 0.06%
same,relative abundance: Butyrate-producing bacterium SM4/1 (AY305314),[8],0.21% and 0.20%
same,relative abundance: Clostridium sp ASF502 (AF157053),[8],0.01% and 0.00%
same,relative abundance: Clostridium sp. A9 (DQ789119),[8],0.23% and 0.27%
same,relative abundance: Clostridium sp. Clone-33 (AB622843),[8],0.02% and 0.00%
same,relative abundance: Clostridium sp. Clone-40 (AB622844),[8],0.05% and 0.02%
same,relative abundance: Clostridium sp. Clone-49 (AB622849),[8],0.07% and 0.09%
same,relative abundance: Clostridium sp. Culture-41 (AB622820),[8],0.10% and 0.08%
same,relative abundance: Clostridium sp. Culture-54 (AB622823),[8],0.03% and 0.04%
same,relative abundance: Coprococcus catus; L8 (AB361624),[8],0.03%
same,relative abundance: Lachnospiraceae bacterium 14-2 (DQ789124),[8],0.05% and 0.02%
same,relative abundance: Lactobacillus reuteri; LU3 (AY735406),[8],0.24% and 0.14%
same,relative abundance: Roseburia faecis (T); M7211 (AY305310),[8],0.35% and 0.41%
same,relative abundance: Roseburia intestinalis; XB6B4 (AM055815),[8],0.02% and 0.00%
same,relative abundance: Rumen bacterium NK4A66 (GU124467),[8],0.07% and 0.10%
same,relative abundance: Tannerella forsythia; OB071 (JN713185),[8],0.02%
same,patients developing memory Th1 responses against E. coli,memory CD4+ T cells,18%
same,patients developing memory Th1 responses against L. johnsonii,memory CD4+ T cells,18%
same,patients developing memory Th1 responses against enterococci,memory CD4+ T cells,54%
same,patients mounting a cellular immune response against L. plantarum,memory CD4+ T cells,9%
same,Lactobacillus johnsonii cultured from lymphoid organs,commensal bacteria; 48 h post therapy,> 40 % cases
same,mice with translocation of commensal bacteria into mesenteric lymph nodes and spleens,commensal bacteria; 48 h post-CTX,> 50 % mice
same,"bacterial translocation (colonies from spleens, anaerobic conditions) in NOD1xNOD2-/-",commensal bacteria; 48 hrs post-CTX,enhanced
same,frequency of pathogenic Th17 (pTh17) cells within the spleen,splenic pTh17 cells; 7 days after treatment,increased
same,priming of splenic pTH17 cells in NOD2-/- mice,splenic pTh17 cells; following CTX administration,augmented
O=C(O)c1cn(C2CC2)c2cc(N3CCNCC3)c(F)cc2c1=O [cifloxacin],effect on the CTX-induced antitumor effects,tumor,not efficient
same,Bacteroidetes in gut microbiota,gut microbiota [9],marked suppression
